US7713969B2, “Compositions and methods for treatment of cancer” (ArQule, Inc., priority 2005, dated 2010)

Assays:
[1] = system: Recombinant Protein Kinase C; assay: Protein Kinase C kinase reaction, Histone H1, autoradiography (Example 79); type: biochemical; conditions: 0.05, 0.5, or 10 μM, 15 minutes at room temperature
Method: Recombinant Protein Kinase C (Calbiochem) (100 ng) was incubated with (±)-cis-3-(5,6-dihydro-4H-pyrrolo[3,2,1-ij]quinolin-1yl)-4(1H-indol-3-yl)pyrrolidine-2,5-dione or (±)-trans-3-(5,6-dihydro-4H-pyrrolo[3,2,1-ij]quinolin-1-yl)-4(1H-indol-3-yl)pyrrolidine-2,5-dione at 0.05, 0.5, or 10 μM for 15 minutes at room temperature. Subsequently, a radioactive labeling mix in kinase buffer (20 mM Tris-HCl pH 7.5, 10 mM MgCl2) containing 20 μM ATP, 0.2 μCi/μl γ^32P-ATP, 0.2 μg/μl Histone H1 (Upstate) was added to each sample. The kinase reaction was carried out for 5 minutes at room temperature. Reaction products were analyzed by 12% SDS-PAGE and autoradiography.

NCI-H69 = assay: Cell viability MTS assay; type: cell-based, human; conditions: Homo sapiens, NCI-H69, 72 hours with compound
Procedure, shortened: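 Adherent lines grown in DMEM with 15% heat-inactivated FBS at 37° C., 5% CO2; seeded, left 16-24 hours, then exposed to serially diluted compound (0.33% DMSO final) for 72 hours. MTS/PMS added for 4 hours, SDS stop, A490 read; IC50 is 50% fewer viable cells versus DMSO controls.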

[2] = system: A549 human lung cancer cells; assay: Annexin V / propidium iodide staining (Example 84); type: cell-based; conditions: 1.2 μM, 38 hours
Method: A549 human lung cancer cells in a 96-well plate (Costar 3603, 5,000/well) were treated with either A) DMSO as a control; B) 1.2 μM (−)-trans-3-(5,6-dihydro-4H-pyrrolo[3,2,1-ij]quinolin-1-yl)-4(1H-indol-3-yl)pyrrolidine-2,5-dione for 38 hours before addition of 1:200 fluorescent Annexin V (green) and 1:500 Propidium iodide (magenta, final concentration of 1 μg/mL). The labeling procedure was allowed to process at 37° C. for 20 minutes followed by image acquisition and analysis using an IC100 Image Cytometer (Beckman Coulter, Inc) with 10× amplification.
To determine whether (−)-trans-3-(5,6-dihydro-4H-pyrrolo[3,2,1-ij]quinolin-1-yl)-4(1H-indol-3-yl)pyrrolidine-2,5-dione works primarily through a cytostatic or apoptotic mechanism, cancer cells exposed to (−)-trans-3-(5,6-dihydro-4H-pyrrolo[3,2,1-ij]quinolin-1-yl)-4(1H-indol-3-yl) pyrrolidine-2,5-dione were stained with fluorescently labeled Annexin V (green fluorescence) and propidium iodide (bright magenta fluorescence). Annexin V is a well-validated reagent that specifically binds with high affinity to externalized membrane phosphatidylserine, an early marker of the onset of apoptosis, while propidium iodide is a marker for dead cells. […] (See FIG. 8)

Row | Protein Kinase C kinase activity in comparison to carrier alone [1] | IC50 (NCI-H69) [nM] | Compound | apoptosis evidenced by Annexin V staining [2] | cells that co-stain with both Annexin V and propidium iodide [2]
1 | did not reduce kinase activity |  | O=C1NC(=O)[C@@H](c2cn3c4c(cccc24)CCC3)[C@@H]1c1c[nH]c2ccccc12 (racemic) [(±)-Trans-3-(5,6-dihydro-4H-pyrrolo[3,2,1-ij]quinolin-1-yl)-4(1H-indol-3-yl)pyrrolidine-2,5-dione] |  | 
2 |  | 1040 | O=C1NC(=O)C(c2cn3c4c(cccc24)CCC3)C1c1c[nH]c2ccccc12 (single isomer, unassigned; (-)) | induced cells to undergo apoptosis | 10-20%
